In paper PMC5748027, “Computer-aided design of multi-target ligands at A1R, A2AR and PDE10A, key proteins in neurodegenerative diseases” (Journal of Cheminformatics, 2017):

What was measured:
[1] = target: T1, A1 human adenosine receptor (A1R) (Homo sapiens, UniProt P30542); experiment: Radioligand binding competition assay, human A1 receptor in transfected CHO cells; conditions: for Ki: Cheng-Prusoff approximation; for inhibition at 0.1 µM: 0.1 µM compound, read-out: % displacement at 0.1 μM (A1R)
T1 construct: expressed in transfected cells; host or cells: CHO
T1 sequence (P30542 1-326): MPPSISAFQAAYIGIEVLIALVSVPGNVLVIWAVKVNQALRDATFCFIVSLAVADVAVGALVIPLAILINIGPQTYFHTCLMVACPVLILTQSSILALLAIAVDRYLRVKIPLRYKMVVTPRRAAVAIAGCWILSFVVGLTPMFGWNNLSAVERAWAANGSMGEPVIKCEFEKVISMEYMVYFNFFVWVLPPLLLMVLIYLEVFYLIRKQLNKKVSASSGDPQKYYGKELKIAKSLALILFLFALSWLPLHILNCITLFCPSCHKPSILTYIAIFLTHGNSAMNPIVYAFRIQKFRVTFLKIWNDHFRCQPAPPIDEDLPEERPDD
Experimental: Pharmacological evaluation was performed in a radioligand binding competition assay, using A1, A2A, A2B, and A3 human receptors expressed in transfected CHO (A1), HeLa (A2A and A3), and HEK-293 (A2B) according to the procedure reported by Bosch et al. [78].

human PDE7B = target: T2, human PDE7B (Homo sapiens, UniProt Q9NP56); experiment: Phosphodiesterase activity, AD293 cells transiently transfected with human PDE7B; format: biochemical; conditions: for inhibition at 10 µM: 10 µM compound, read-out: Percentage inhibition at 10µM (PDE7B)
T2 construct: expressed in transfected cells; host or cells: AD293 (transient transfection)
T2 sequence (Q9NP56 whole entry): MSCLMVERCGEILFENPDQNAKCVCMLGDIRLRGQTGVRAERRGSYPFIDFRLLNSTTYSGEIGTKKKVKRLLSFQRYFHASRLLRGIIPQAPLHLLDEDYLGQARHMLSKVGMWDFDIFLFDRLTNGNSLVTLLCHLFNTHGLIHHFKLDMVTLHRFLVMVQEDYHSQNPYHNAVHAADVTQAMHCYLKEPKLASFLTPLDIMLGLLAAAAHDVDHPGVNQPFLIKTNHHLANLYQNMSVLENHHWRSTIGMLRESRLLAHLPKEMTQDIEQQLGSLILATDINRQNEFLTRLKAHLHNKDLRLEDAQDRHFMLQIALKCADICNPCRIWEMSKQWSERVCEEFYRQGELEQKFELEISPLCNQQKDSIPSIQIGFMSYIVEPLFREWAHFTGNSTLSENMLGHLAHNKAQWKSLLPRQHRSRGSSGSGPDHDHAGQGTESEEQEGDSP
Experimental: (§1) The activity measurements against the phosphodiesterases PDE7A, PDE7B, PDE9A and PDE10A were performed using AD293 cells that were transiently and separately transfected with human PDE7A, PDE7B, PDE9A, and PDE10A following the procedure described by Shipe et al..

[2] = target: T3, A2A human adenosine receptor (A2AR) (Homo sapiens, UniProt P29274); experiment: Radioligand binding competition assay, human A2A receptor in transfected HeLa cells; conditions: for % displacement at 0.1 μM (A2AR): 0.1 µM compound; for Ki: Cheng-Prusoff approximation
T3 construct: expressed in transfected cells; host or cells: HeLa
T3 sequence (P29274 whole entry): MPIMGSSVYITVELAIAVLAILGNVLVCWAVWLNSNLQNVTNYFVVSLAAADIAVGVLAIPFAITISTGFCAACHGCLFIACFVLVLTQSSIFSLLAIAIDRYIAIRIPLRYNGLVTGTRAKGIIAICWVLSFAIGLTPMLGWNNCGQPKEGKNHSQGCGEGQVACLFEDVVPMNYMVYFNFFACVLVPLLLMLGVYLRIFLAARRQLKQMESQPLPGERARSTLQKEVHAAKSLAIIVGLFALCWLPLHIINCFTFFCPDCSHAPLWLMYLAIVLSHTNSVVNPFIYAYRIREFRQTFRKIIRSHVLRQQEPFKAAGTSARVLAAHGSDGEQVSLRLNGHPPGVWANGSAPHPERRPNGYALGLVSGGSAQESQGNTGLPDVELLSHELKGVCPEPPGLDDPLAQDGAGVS
Experimental: (§2) Bioactivity testing was performed using A1 and A2A human adenosine receptors expressed in transfected CHO (A1) and HeLa (A2A) cells, as well as AD293 cells that were transiently transfected with human PDE10A. Table 1 includes the list of synthesized 4,6-substituted 2-amino-pyridin-3-carbonitriles, along with their Ki values against A1R, A2AR, and IC50 values against PDE10A.
(§3) Pharmacological evaluation was performed in a radioligand binding competition assay, using A1, A2A, A2B, and A3 human receptors expressed in transfected CHO (A1), HeLa (A2A and A3), and HEK-293 (A2B) according to the procedure reported by Bosch et al..

human PDE9A = target: T4, human PDE9A (Homo sapiens, UniProt O76083); experiment: Phosphodiesterase activity, AD293 cells transiently transfected with human PDE9A; format: biochemical; conditions: 10 µM compound; read-out: Percentage inhibition at 10µM (PDE9A)
T4 construct: expressed in transfected cells; host or cells: AD293 (transient transfection)
T4 sequence (O76083 whole entry): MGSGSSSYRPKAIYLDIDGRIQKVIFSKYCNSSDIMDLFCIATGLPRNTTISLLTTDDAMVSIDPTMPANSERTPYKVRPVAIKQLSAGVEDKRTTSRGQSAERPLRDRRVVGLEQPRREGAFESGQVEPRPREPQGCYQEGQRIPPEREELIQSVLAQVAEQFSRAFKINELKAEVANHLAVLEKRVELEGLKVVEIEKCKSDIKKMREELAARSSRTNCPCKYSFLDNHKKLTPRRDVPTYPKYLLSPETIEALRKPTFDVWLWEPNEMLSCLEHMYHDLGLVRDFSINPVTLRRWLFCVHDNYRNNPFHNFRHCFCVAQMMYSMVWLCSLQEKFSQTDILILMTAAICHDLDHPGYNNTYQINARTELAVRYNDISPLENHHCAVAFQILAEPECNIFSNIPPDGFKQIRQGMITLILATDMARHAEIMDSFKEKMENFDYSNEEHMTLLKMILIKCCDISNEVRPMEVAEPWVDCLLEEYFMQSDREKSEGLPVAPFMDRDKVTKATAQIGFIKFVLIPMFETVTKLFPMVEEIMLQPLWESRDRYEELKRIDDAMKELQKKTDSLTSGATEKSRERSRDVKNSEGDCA
Experimental: as §1

A3 human receptor (A3R) = target: T5, A3 human receptor (A3R) (Homo sapiens, UniProt P0DMS8); experiment: Radioligand binding competition assay, human A3 receptor in transfected HeLa cells; conditions: 0.1 µM compound; read-out: percentage displacement at 0.1µM (A3R)
T5 construct: expressed in transfected cells; host or cells: HeLa
T5 sequence (P0DMS8 1-318): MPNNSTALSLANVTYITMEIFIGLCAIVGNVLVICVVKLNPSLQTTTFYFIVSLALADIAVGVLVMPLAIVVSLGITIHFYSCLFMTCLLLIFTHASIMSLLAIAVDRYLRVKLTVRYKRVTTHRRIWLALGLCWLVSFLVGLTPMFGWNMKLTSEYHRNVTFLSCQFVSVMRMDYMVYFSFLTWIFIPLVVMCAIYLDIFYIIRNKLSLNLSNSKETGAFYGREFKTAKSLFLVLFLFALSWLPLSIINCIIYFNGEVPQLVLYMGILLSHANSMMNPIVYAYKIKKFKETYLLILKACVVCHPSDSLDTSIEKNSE
Experimental: as §3

human PDE10A = target: T6, human PDE10A (Homo sapiens, UniProt Q9Y233); experiment: Phosphodiesterase activity, AD293 cells transiently transfected with human PDE10A; format: biochemical; conditions: for inhibition at 10 µM: read-out: % inhibition at 10 μM (PDE10A), 10 μM compound; for IC50: mean of 3 experiments in duplicate
T6 construct: expressed in transfected cells; host or cells: AD293 (transient transfection)
T6 sequence (Q9Y233 267-1055 limits assumed): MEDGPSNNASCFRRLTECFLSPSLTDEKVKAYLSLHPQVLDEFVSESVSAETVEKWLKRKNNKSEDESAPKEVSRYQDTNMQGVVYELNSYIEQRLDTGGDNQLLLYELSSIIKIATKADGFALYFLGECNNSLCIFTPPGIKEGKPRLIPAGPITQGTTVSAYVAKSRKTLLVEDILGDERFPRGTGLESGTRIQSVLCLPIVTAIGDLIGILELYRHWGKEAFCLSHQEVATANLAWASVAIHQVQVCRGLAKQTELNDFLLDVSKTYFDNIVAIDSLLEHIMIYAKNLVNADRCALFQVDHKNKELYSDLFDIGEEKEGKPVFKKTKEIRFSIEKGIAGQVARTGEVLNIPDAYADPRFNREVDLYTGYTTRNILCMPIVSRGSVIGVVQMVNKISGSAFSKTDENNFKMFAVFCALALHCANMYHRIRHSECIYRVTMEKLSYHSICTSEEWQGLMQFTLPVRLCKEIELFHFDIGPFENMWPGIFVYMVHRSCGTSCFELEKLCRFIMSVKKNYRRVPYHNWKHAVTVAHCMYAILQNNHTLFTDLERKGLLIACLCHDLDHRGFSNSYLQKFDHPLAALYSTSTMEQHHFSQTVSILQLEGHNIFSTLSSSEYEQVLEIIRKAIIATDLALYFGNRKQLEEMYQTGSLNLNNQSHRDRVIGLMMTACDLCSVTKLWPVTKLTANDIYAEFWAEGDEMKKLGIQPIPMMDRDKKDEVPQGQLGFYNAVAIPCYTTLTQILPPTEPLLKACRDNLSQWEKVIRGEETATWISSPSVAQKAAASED
Experimental: as §2, §1

human PDE7A = target: T7, human PDE7A (Homo sapiens, UniProt Q13946); experiment: Phosphodiesterase activity, AD293 cells transiently transfected with human PDE7A; format: biochemical; conditions: for inhibition at 10 µM: 10 µM compound, read-out: Percentage inhibition at 10µM (PDE7A)
T7 construct: expressed in transfected cells; host or cells: AD293 (transient transfection)
T7 sequence (Q13946 whole entry): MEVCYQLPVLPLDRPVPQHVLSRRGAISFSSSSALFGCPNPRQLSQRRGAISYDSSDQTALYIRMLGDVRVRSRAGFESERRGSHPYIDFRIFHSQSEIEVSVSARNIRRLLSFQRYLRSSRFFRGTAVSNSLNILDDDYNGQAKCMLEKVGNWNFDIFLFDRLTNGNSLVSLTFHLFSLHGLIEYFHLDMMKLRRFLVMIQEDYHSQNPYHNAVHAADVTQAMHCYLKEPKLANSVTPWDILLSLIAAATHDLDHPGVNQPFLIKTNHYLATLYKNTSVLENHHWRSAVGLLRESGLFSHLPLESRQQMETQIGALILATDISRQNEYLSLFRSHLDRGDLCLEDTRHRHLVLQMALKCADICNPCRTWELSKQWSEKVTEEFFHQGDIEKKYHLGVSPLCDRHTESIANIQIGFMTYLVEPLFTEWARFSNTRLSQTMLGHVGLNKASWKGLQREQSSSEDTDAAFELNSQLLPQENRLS
Experimental: as §1

[3] = target: T8, A2B human receptor (A2BR) (Homo sapiens, UniProt P29275); experiment: Radioligand binding competition assay, human A2B receptor in transfected HEK-293 cells; conditions: 0.1 µM compound; read-out: percentage displacement at 0.1µM (A2BR)
T8 construct: expressed in transfected cells; host or cells: HEK-293
T8 sequence (P29275 1-332): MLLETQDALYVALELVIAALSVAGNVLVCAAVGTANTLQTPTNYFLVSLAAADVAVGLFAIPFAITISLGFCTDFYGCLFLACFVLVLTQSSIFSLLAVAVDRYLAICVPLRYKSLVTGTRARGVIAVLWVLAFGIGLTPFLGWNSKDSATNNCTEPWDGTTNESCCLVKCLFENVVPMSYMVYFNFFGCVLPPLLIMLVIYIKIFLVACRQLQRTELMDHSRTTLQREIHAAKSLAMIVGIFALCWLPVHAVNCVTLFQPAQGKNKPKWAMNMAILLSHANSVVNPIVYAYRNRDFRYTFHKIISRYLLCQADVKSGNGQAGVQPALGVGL
Experimental: as §3

SMILES	Ki [1]	melting point	inhibition at 10 µM (human PDE7B)	% displacement at 0.1 μM (A2AR) [2]	inhibition at 10 µM (human PDE9A)	inhibition at 0.1 µM (A3 human receptor (A3R))	inhibition at 10 µM (human PDE10A)	inhibition at 10 µM (human PDE7A)	inhibition at 0.1 µM [3]	selectivity over all tested off-targets (human PDE10A; PDE10A IC50 versus lowest selectivity at PDE7B (55% inhibition at 10 µM))	IC50 (human PDE10A)	inhibition at 0.1 µM [1]	Ki [2]	IC50 (human PDE7A)	IC50 (human PDE7B)
N#Cc1c(-c2ccc3c(c2)OCO3)cc(-c2ccccc2)nc1N [Compound 7, 2-amino-4-(2H-1,3-benzodioxol-5-yl)-6-phenylpyridine-3-carbonitrile]	0.025 ± 0.002 µM	220 to 221 °C	8%	5%	19%	2%	17%	22%	1%						
N#Cc1c(C2CCCCC2)cc(-c2ccccc2)nc1N [Compound 8, 2-amino-4-cyclohexyl-6-phenylpyridine-3-carbonitrile]	0.294 ± 0.01 µM	125 to 126 °C	55%	50%	30%	13%		26%	1%	twofold	2.4 ± 0.2 µM				
N#Cc1c(C2CCCCC2)cc(-c2ccccc2F)nc1N [Compound 9, 2-amino-4-cyclohexyl-6-(2-fluorophenyl)pyridine-3-carbonitrile]	0.084 ± 0.008 µM	126 to 127 °C	34%	34%	1%	7%	68%	19%	2%						
Cc1ccccc1-c1cc(C2CCCCC2)c(C#N)c(N)n1 [Compound 10, 2-amino-4-cyclohexyl-6-(2-methylphenyl)pyridine-3-carbonitrile]		120 to 121 °C	35%	18%	9%	28%		31%	1%		3.7 ± 0.3 µM	17%			
N#Cc1c(C2CCCCC2)cc(-c2cccs2)nc1N [Compound 11, 2-amino-4-cyclohexyl-6-(thiophen-2-yl)pyridine-3-carbonitrile]		160 to 162 °C	45%	11%	6%	26%		33%	1%		1.2 ± 0.1 µM	16%			
N#Cc1c(C2CCCCC2)cc(-c2ccsc2)nc1N [Compound 12, 2-amino-4-cyclohexyl-6-(thiophen-3-yl)pyridine-3-carbonitrile]		145 to 146 °C	60%	60%	3%	14%		29%	2%		0.9 ± 0.2 µM	44%			
N#Cc1c(C2CCCCC2)cc(-c2ccco2)nc1N [Compound 13, 2-amino-4-cyclohexyl-6-(furan-2-yl)pyridine-3-carbonitrile]	0.07 ± 0.003 µM	177 to 178 °C	41%		4%	19%	55%	44%	3%				0.049 ± 0.004 µM		
N#Cc1c(-c2ccccc2F)cc(-c2ccccc2F)nc1N [Compound 18, 2-amino-4,6-bis(2-fluorophenyl)pyridine-3-carbonitrile]	0.078 ± 0.005 µM	180 to 181 °C	36%		0%	1%	38%	25%	1%				0.948 ± 0.013 µM		
COc1ccccc1-c1cc(-c2ccccc2F)nc(N)c1C#N [Compound 19, 2-amino-6-(2-fluorophenyl)-4-(2-methoxyphenyl)pyridine-3-carbonitrile]		187 to 188 °C	42%		19%	1%	73%	49%	2%			58%	0.338 ± 0.012 µM		
COc1ccccc1-c1cc(-c2ccco2)nc(N)c1C#N [Compound 21, 2-amino-6-(furan-2-yl)-4-(2-methoxyphenyl)pyridine-3-carbonitrile]		187 to 188 °C	30%		17%	23%			2%		10 ± 0.6 µM	38%	0.095 ± 0.004 µM	15.1 µM	
N#Cc1c(-c2ccccc2Cl)cc(-c2ccc(O)cc2)nc1N [Compound 23, 2-amino-4-(2-chlorophenyl)-6-(4-hydroxyphenyl)pyridine-3-carbonitrile]		215 to 217 °C		10%	25%	1%			8%		4 ± 0.3 µM	2%		1.8 µM	7.3 µM
N#Cc1c(-c2ccc(O)cc2)cc(-c2ccc(O)cc2)nc1N [Compound 24, 2-amino-4,6-bis(4-hydroxyphenyl)pyridine-3-carbo-nitrile]		299 to 300 °C	38%	7%	7%	1%		47%	1%		3.1 ± 0.4 µM	19%			
